In patent publication US4880809A, “1,4-disubstituted piperazines (or homopiperazines) as platelet-activating factor antagonists” (Takeda Chemical Industries, Ltd., priority 1987, dated 1989):

Experiments:
Wistar-strain rats = test: Toxicity Test; type: in vivo, Male Wistar-strain rats; details: 30, 100 and 300 mg/kg per day orally, two weeks
Method: Male Wistar-strain rats (5 wk) were used in groups of five individuals. The animals of the respective groups were orally administered with the compound of Example 62 at the dose of 30, 100 and 300 mg/kg per day over a period of two weeks as a suspension in gum arabic and water at a rate of 10 ml/kg. The animals of the control group were administered with a suspension of gum arabic in water. [Results]

ET-induced hypotension = test: Anti-Endotoxin Shock Activity in Rats: ET-induced hypotension; type: in vivo, Jcl: SD male rats; details: for Blood Pressure: 30 mg/kg p.o. one hour before ET, n = 5
Method: (§1) In a manner similar to that described in Test Example 2, Jcl: SD male rats (200 to 250 g) were applied with cannulation for measurement of blood pressure and for injecting PAF. The test animals were fasted overnight, and the experiments were conducted. The cannula on the side of femoral artery was connected with a pressure transducer and secured. The, endotoxin (ET) (50 mg/kg) was given through the cannula on the side of femoral vein at a rate of 1 ml/kg. While measuring blood pressure continuously, time until death was measured. Test drugs (30 mg/kg) were suspended in gum arabic and water, which were orally administered (5 ml/kg) to test animals one hour before the injection of ET. The animals in the control group were administered with a suspension of gum arabic in water.

[1] = test system: reversed passive Arthus reaction; test: Inhibitory Action Against Reversed Passive Arthus Reaction; type: in vivo, Jcl SD male rats; details: p.o. (n = 6)
Method: This reaction was conducted, in accordance with the method reported by Chang and Otterness [Eur. J. Pharmacol., 69, 155 (1981)], by using rabbit anti-egg albumin (EA) antiserum. Jcl SD male rats (7 wk) were used. Under ether anesthesia, the hair of the back was cut and 1 ml of a 0.5% solution of EA in physiological saline was injected into the tail vein, followed by intracutaneous injection of 0.1 ml each of the left- and right-hand sides of the back. Vascular permeability was measured as follows. Three hours later, 1 ml of physiological saline containing 1% of Evans blue was given intravenously, and 30 minutes later, the animals were sacrificed by bleeding and the skin excised, and the area of wheals stained with a leakage of the dye (major axis x minor axis, mm^2). The test compounds were suspended in a 5% gum arabic solution, which was administered orally one hour before administration of the antigen.

cerebral infarction [2] = test: Action Against Experimental Cerebral Infarction in Mongolian Gerbils (inclined plane); type: in vivo; details: 30 mg/kg, p.o., n = 5
Method: (§2) Male 10 weeks old Mongolian gerbils were anesthetized with ether. The common carotid artery on both sides was exposed surgically. After waking, the artery was ligated with steel clips for 15 minutes. Then, the clips were removed and the blood was reperfused for three hours. Ataxia symptoms and manifestations of neuro-deficiency were assessed by the method using stroke index [C. P. McGraw: Arch. Neurol., 34, 334-336 (1977)] and inclined plane [A. S. Rivlin et al.: J. Neurosurg., 47, 577-581 (1977)]. The test compounds were orally administered one hour before ligation as a suspension in gum arabic. The control group was administered with the same volume of gum arabic. The number of animals subjected to this experiment was 5 each in both groups.

PAF-Induced Hypotension = test: Inhibitory Action on PAF-Induced Hypotension; type: in vivo, SD (Jcl) male rats; details: po, 30 mg/kg p.o., rat
Method: SD (Jcl) male rats of 6 to 8 week old were subjected to the experiment. After fasting overnight, the rats were cannulated into the femoral artery and vein under anesthesia with pentobarbital. A transducer (MPU-0.5-290O-III, TOYO BALDWIN, Japan) was connected with the artery cannula, and blood pressure was continuously measured. […] The rate of inhibition of lowering of blood pressure after administration of the test samples against the control was evaluated.

ET-induced death = test: Anti-Endotoxin Shock Activity in Rats: ET-induced death; type: in vivo, Jcl: SD male rats; details: for Number of survivals: 30 mg/kg p.o. one hour before ET, n = 5
Method: as §1

diabetic nephropathy = test: Action Against Diabetic Nephropathy; type: in vivo, Female KKAy mice; details: for albumin (%) excreted in urine / Amount of albumin excreted in urine / Amount of glucose in plasma / Amount of triglyceride in plasma / Total amount of protein in urine: 3 weeks, N 8; for albumin (%) excreted in urine: in parentheses; for Amount of albumin excreted in urine / Amount of glucose in plasma / Amount of triglyceride in plasma / Total amount of protein in urine: means ±SE
Method: Female KKAy mice of 10 weeks old were employed. Test animals were administered with the compound of Example 62 for three weeks at doses of 8 and 26 mg/kg/day in admixture with feedstuff. Then, urine was collected from these animals for 24 hours. Urine desalted (filtered urine) by means of a PD-10 column (Pharmacia) was employed to determine the total protein concentration in the urine by using a protein-assay kit (Bio-Rad). The amount ot albumin in the urine was calculated from the relative concentration of albumin to the total protein determined by means of electrophoresis.
Glucose and triglyceride in the plasma were determined by an enzyme method using the Ankol Chemistry System (Baker instruments).

cerebral infarction [3] = test: Action Against Experimental Cerebral Infarction in Mongolian Gerbils (stroke index); type: in vivo; details: 30 mg/kg, p.o., N = 5
Method: as §2

[4] = test system: PAF-Induced Platelet Aggregation; test: Inhibitory Action on PAF-Induced Platelet Aggregation; type: cell-based, New Zealand white male rabbits; details: Oryctolagus cuniculus, Drug Concentration: 3 × 10^-5 M, rabbit PRP
Method: Blood was collected from the hearts of conscious New Zealand white male rabbits weighing 2 to 3 kg using citric acid as an anticoagulant (one volume part of 3.15% citric acid per 9 volume parts of the whole blood). The blood was subjected to a centrifuge at 800 rpm for ten minutes to obtain platelet rich plasma (PRP). The remaining blood after collecting the PRP was subjected to a centrifuge at 3000 rpm for ten minutes to obtain platelet poor plasma (PPP). PRP was diluted with PPP, and the number of platelets was adjusted to 500,000/μl. Platelet aggregation was examined by means of turbidimetry [Born, Nature, 194, 927-929 (1962)] with 8 channel aggregometer (NBS HEMA TRACER 6 Nikoh, Bioscience, Japan). More concretely, PRP (250 μl) was kept warm (37° C.) for three minutes in a silicon-processed cuvette, to which was added a test sample (25 μl) dissolved in a physiological saline or in 10mM dimethylsulfoxide followed by dilution with a physiological saline. Two minutes later, PAF (25 μl, 3×10^-9 -1×10^-8 M), dissolved in a physiological saline, was added and then the maximum aggregation rate was determined. As the control, physiological saline without test sample was added to the cuvette, and the inhibitory rate thereon was determined.

[5] = 8 and 26 mg/kg/day, three weeks

**Q.** With `COc1cc2c(cc1OC)CCCC(C(=O)N1CCN(C(=O)c3cc(OC)c(OC)c(OC)c3)CC1)=C2` [Example 62, 1-(2,3-dimethoxy-6,7-dihydro-5H-benzocyclohepten-8-ylcarbonyl)-4-(3,4,5-trimethoxybenzoyl)piperazine] as the molecule, how does the “body weight between the control group and the test group” value (Wistar-strain rats) read?
**A.** No difference in body weight

**Q.** And the general behaviors (Wistar-strain rats)?
**A.** no change was observed in general behaviors

**Q.** What about the “internal organs under macroscopic observation (autopsy)” value (Wistar-strain rats) of the same molecule?
**A.** no abnormality in internal organs

**Q.** And the “lowering of blood pressure due to ET” value (ET-induced hypotension; 30 mg/kg p.o.)?
**A.** suppressed significantly

**Q.** What about the “Blood Pressure” value (ET-induced hypotension; 0 min) of the same molecule?
**A.** 92 ± 2 mmHg

**Q.** And the “Blood Pressure” value (ET-induced hypotension; 3 min)?
**A.** 82 ± 6 mmHg

**Q.** What about the “Blood Pressure” value (ET-induced hypotension; 5 min, **P < 0.01) of the same molecule?
**A.** 90 ± 4 mmHg

**Q.** What about the “Blood Pressure” value (ET-induced hypotension; 10 min, *P < 0.05) of the same molecule?
**A.** 90 ± 4 mmHg

**Q.** And the “Blood Pressure” value (ET-induced hypotension; 15 min)?
**A.** 92 ± 3 mmHg

**Q.** And the “Blood Pressure” value (ET-induced hypotension; 20 min)?
**A.** 95 ± 3 mmHg

**Q.** And the “Area of wheals stained with the dye” value ([1]; 3.1 mg/kg)?
**A.** 52.8 ± 2.7 mm^2

**Q.** And the “Preventive effect of reversed passive Arthus reaction” value (from here on “Preventive effect”) ([1]; 3.1 mg/kg)?
**A.** 5%

**Q.** And the “Area of wheals stained with the dye” value ([1]; 12.5 mg/kg)?
**A.** 38.4 ± 6.1 mm^2

**Q.** What about the “Preventive effect” value ([1]; 12.5 mg/kg) of the same molecule?
**A.** 31%

**Q.** And the “Preventive effect” value ([1]; 50 mg/kg)?
**A.** 70%

**Q.** And the “Area of wheals stained with the dye” value ([1]; 50 mg/kg, **P < 0.01)?
**A.** 16.8 ± 5.1 mm^2

**Q.** What about the “Angle of inclined plane where test animals tumble down the ramp” value (from here on “Angle”) (cerebral infarction [2]; 15 min after reperfusion) of the same molecule?
**A.** 34 ± 3 °

**Q.** What about the “Angle” value (cerebral infarction [2]; 30 min after reperfusion) of the same molecule?
**A.** 35 ± 3 °

**Q.** And the “Angle” value (cerebral infarction [2]; 60 min after reperfusion, *P < 0.05)?
**A.** 35 ± 2 °

**Q.** And the “Angle” value (cerebral infarction [2]; 120 min after reperfusion, *P < 0.05)?
**A.** 36 ± 2 °

**Q.** What about the “Angle” value (cerebral infarction [2]; 180 min after reperfusion) of the same molecule?
**A.** 38 ± 2 °

**Q.** What about the “Angle” value (cerebral infarction [2]; ligation time 0 min) of the same molecule?
**A.** 47 ± 1 °

**Q.** What about the “Angle” value (cerebral infarction [2]; ligation time 15 min) of the same molecule?
**A.** 20 ± 0 °

**Q.** And the inhibition in vivo at 30 mg/kg (PAF-Induced Hypotension; after 1 hr)?
**A.** 100%

**Q.** What about the inhibition in vivo at 30 mg/kg (PAF-Induced Hypotension; after 2 hrs) of the same molecule?
**A.** 100%

**Q.** And the inhibition in vivo at 30 mg/kg (PAF-Induced Hypotension; after 4 hrs)?
**A.** 100%

**Q.** And the Number of survivals (ET-induced death; 0 hr)?
**A.** 5

**Q.** And the Number of survivals (ET-induced death; 1 hr)?
**A.** 5

**Q.** And the Number of survivals (ET-induced death; 2 hr)?
**A.** 5

**Q.** And the Number of survivals (ET-induced death; 3 hr)?
**A.** 5

**Q.** What about the Number of survivals (ET-induced death; 4 hr) of the same molecule?
**A.** 4

**Q.** What about the Number of survivals (ET-induced death; 5 hr) of the same molecule?
**A.** 2

**Q.** What about the Number of survivals (ET-induced death; 6 hr) of the same molecule?
**A.** 1

**Q.** What about the Number of survivals (ET-induced death; 7 hr) of the same molecule?
**A.** 1

**Q.** What about the Number of survivals (ET-induced death; 8 hr) of the same molecule?
**A.** 1

**Q.** And the survival time (ET-induced death; 30 mg/kg p.o., control group 108±26 minutes, **)?
**A.** 320 ± 45 min

**Q.** And the “albumin (%) excreted in urine” value (diabetic nephropathy; 8 mg/kg/day p.o.)?
**A.** 46%

**Q.** What about the “Amount of albumin excreted in urine” value (diabetic nephropathy; 8 mg/kg/day p.o.) of the same molecule?
**A.** 11.0 ± 2.0 mg/day

**Q.** What about the “Amount of glucose in plasma” value (diabetic nephropathy; 8 mg/kg/day p.o.) of the same molecule?
**A.** 326 ± 26 mg/dL

**Q.** And the “Amount of triglyceride in plasma” value (diabetic nephropathy; 8 mg/kg/day p.o.)?
**A.** 499 ± 45 mg/dL

**Q.** What about the “Total amount of protein in urine” value (diabetic nephropathy; 8 mg/kg/day p.o.) of the same molecule?
**A.** 23.8 ± 2.9 mg/day

**Q.** What about the “suppression of excretion of albumin in urine” value (diabetic nephropathy; 26 mg/kg/day) of the same molecule?
**A.** significant

**Q.** And the “albumin (%) excreted in urine” value (diabetic nephropathy; 26 mg/kg/day p.o.)?
**A.** 36%

**Q.** And the “Amount of glucose in plasma” value (diabetic nephropathy; 26 mg/kg/day p.o.)?
**A.** 381 ± 33 mg/dL

**Q.** And the “Amount of triglyceride in plasma” value (diabetic nephropathy; 26 mg/kg/day p.o.)?
**A.** 546 ± 43 mg/dL

**Q.** And the “Total amount of protein in urine” value (diabetic nephropathy; 26 mg/kg/day p.o.)?
**A.** 22.0 ± 3.8 mg/day

**Q.** And the “Amount of albumin excreted in urine” value (diabetic nephropathy; 26 mg/kg/day p.o., *p<0.05 vs control)?
**A.** 8.0 ± 0.7 mg/day

**Q.** And the “excretion of albumin in urine” value (diabetic nephropathy; [5])?
**A.** suppressed the excretion of albumin in urine dose-dependently

**Q.** What about the “plasma glucose” value (diabetic nephropathy; [5]) of the same molecule?
**A.** No change

**Q.** What about the “plasma triglyceride” value (diabetic nephropathy; [5]) of the same molecule?
**A.** No change

**Q.** And the “total protein in urine” value (diabetic nephropathy; high dose)?
**A.** showed a tendency of being suppressed in a high dose

**Q.** What about the Stroke index (cerebral infarction [3]; 15 min after reperfusion, **P < 0.01) of the same molecule?
**A.** 4.2 ± 0.6

**Q.** And the Stroke index (cerebral infarction [3]; 30 min after reperfusion, **P < 0.01)?
**A.** 3.4 ± 0.5

**Q.** What about the Stroke index (cerebral infarction [3]; 60 min after reperfusion, **P < 0.01) of the same molecule?
**A.** 3.2 ± 0.5

**Q.** What about the Stroke index (cerebral infarction [3]; 120 min after reperfusion, **P < 0.01) of the same molecule?
**A.** 2.0 ± 0

**Q.** And the Stroke index (cerebral infarction [3]; 180 min after reperfusion, **P < 0.01)?
**A.** 0.8 ± 0.5

**Q.** And the Stroke index (cerebral infarction [3]; ligation time 0 min)?
**A.** 0

**Q.** And the Stroke index (cerebral infarction [3]; ligation time 15 min, *P < 0.05)?
**A.** 14.0 ± 1.0

**Q.** And the inhibition at 30 µM [4]?
**A.** 100%
